# According to PubChem BioAssay (NCI):
# Several values for one entry are separate records, joined by “and”; a condition that tells them apart may be missing. Identical values can stand only once.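 Cultured in 96-well plates, cells were exposed to test compound for 48 hours across five concentrations. The concentration for 50% growth inhibition is given as GI50. The concentration for full growth arrest is given as TGI.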
# Columns and labels:
# Test in all cases: growth of human tumour cells (NCI), 48 h
# NCI-H23 lung = system: NCI-H23 lung
# CAKI-1 renal = system: CAKI-1 renal
# SNB-75 CNS = system: SNB-75 CNS
# SN12C renal = system: SN12C renal
# PC-3 prostate = system: PC-3 prostate
# MCF7 breast = system: MCF7 breast
# HOP-62 NSCLC = system: HOP-62 NSCLC
# EKVX NSCLC = system: EKVX NSCLC
# MOLT-4 leukemia = system: MOLT-4 leukemia
# OVCAR-3 ovarian = system: OVCAR-3 ovarian
SMILES,GI50 (NCI-H23 lung),TGI (NCI-H23 lung),GI50 (CAKI-1 renal),TGI (CAKI-1 renal),GI50 (SNB-75 CNS),TGI (SNB-75 CNS),GI50 (SN12C renal),TGI (SN12C renal),GI50 (PC-3 prostate),TGI (PC-3 prostate),GI50 (MCF7 breast),TGI (MCF7 breast),GI50 (HOP-62 NSCLC),TGI (HOP-62 NSCLC),GI50 (EKVX NSCLC),TGI (EKVX NSCLC),GI50 (MOLT-4 leukemia),TGI (MOLT-4 leukemia),GI50 (OVCAR-3 ovarian),TGI (OVCAR-3 ovarian)
COc1ccc(COc2cc3oc(=O)c4cc(C(C)O)ccc4c3cc2OC)cc1 (stereo unspecified),16.6 µM,> 86.6 µM,15.3 µM,> 51.1 µM,2080 nM,11.1 µM,21.2 µM,> 100 µM,14.7 µM,> 100 µM,9490 nM,> 100 µM,8150 nM,29.4 µM,19.7 µM,> 100 µM,> 23 µM,> 100 µM,17.1 µM,63.1 µM
NC(=O)CC(N)c1nn[nH]n1 (stereo unspecified),,> 100 µM,,> 100 µM,,> 100 µM,,> 100 µM,,> 100 µM,,> 100 µM,,> 100 µM,,> 100 µM,,> 100 µM,,> 100 µM
Fc1ccc2nc(-c3nc(-c4ccccc4)n4ccccc34)[nH]c2c1,3.54 µM,17 µM,3.38 µM,15.1 µM,2090 nM,6.87 µM,4.5 µM,17.9 µM,1.82 µM,4.24 µM,1370 nM,5.59 µM,1940 nM,3.84 µM,,,3.6 µM,> 100 µM,4.29 µM,15.1 µM
COc1ccc2c(c1)C(=O)c1c-2c(=O)n(CCCN(C)C)c2cc(OC)c(OC)cc12,6.48 µM,24.5 µM,1.48 µM,> 100 µM,10100 nM,23 µM,2.18 µM,16.6 µM,11.4 µM,26.5 µM,141 nM,15.3 µM,682 nM,> 100 µM,16.5 µM,30.7 µM,0.149 µM,12 µM,13.7 µM,26.9 µM
Cc1cc(O)c2c3c(ccc2c1)C(=O)c1c(O)cccc1C3=O,,> 100 µM,,> 100 µM,,> 74.7 µM,,> 100 µM,,> 100 µM,,> 100 µM,,> 100 µM,,> 100 µM,,> 39.1 µM,,3.45 µM
O=c1[nH]c2ccccc2n1C1CCN(CCCC(c2ccc(F)cc2)c2ccc(F)cc2)CC1,1.51 µM and 9.1 µM,3.18 µM and 24.3 µM,1.39 µM and 7.46 µM,2.96 µM and 20.9 µM,,25.6 µM,1.5 µM,2.97 µM and 23.4 µM,1.41 µM and 7.81 µM,3.2 µM and 21.3 µM,1590 nM and 5300 nM,3.1 µM and 11.8 µM,1530 nM,2.89 µM and 22.3 µM,1.66 µM and 8.47 µM,4.54 µM and 22.7 µM,2.23 µM,5.75 µM and 16.6 µM,1.7 µM and 4.37 µM,3.13 µM and 13.1 µM
c1ccc2c(CNCCN3CCNCC3)c3ccccc3c(CNCCN3CCNCC3)c2c1,16 µM,54.1 µM,> 100 µM,> 100 µM,58400 nM,> 100 µM,,,5.86 µM,20.3 µM,11500 nM,50.2 µM,11900 nM,36.1 µM,19.3 µM,61.3 µM,3.88 µM,27.5 µM,18.9 µM,51.7 µM
CC(=O)N(O)c1ccc(/C=C/c2ccccc2)cc1,3.6 µM,36.3 µM,0.543 µM,3.22 µM,883 nM,4.59 µM,0.763 µM,37.5 µM,2.32 µM,> 100 µM,548 nM,> 100 µM,1980 nM,> 35.7 µM,,,2.27 µM,> 100 µM,2.55 µM,29.2 µM
CCn1ccnc1C(=O)/C=C/c1ccc(CC(=O)Nc2ccc(F)cc2)cc1,4.25 µM,> 16.7 µM,5.08 µM,> 16.7 µM,2810 nM,> 16.7 µM,3.71 µM,> 16.7 µM,7.06 µM,> 16.7 µM,2520 nM,> 16.7 µM,3920 nM,9.93 µM,3.59 µM,12.2 µM,5.28 µM,14.5 µM,3.92 µM,> 16.7 µM
C=CC[N+]1(CC)CCN=C1CCCCCCCCCCCCCCCCC (stereo unspecified),0.119 µM,0.589 µM,1.2 µM,2.63 µM,,,0.623 µM,1.99 µM,0.237 µM,0.702 µM,346 nM,1.28 µM,530 nM,1.75 µM,,,1.07 µM,3.51 µM,,
COc1ccc(-c2c3c(N)c4c(nc3nc3c2c(C)nn3-c2ccccc2)CCCC4)cc1,,,3.88 µM,15.9 µM,14000 nM,31.8 µM,3.72 µM,16.1 µM,2.54 µM,10.9 µM,2570 nM,8.88 µM,14100 nM,29.3 µM,,,2.3 µM,5.77 µM,4.17 µM,15.3 µM
COc1cc2c(cc1NC(=O)C(Cl)Cl)-c1ccc(NC(=O)C(Cl)Cl)cc1C2,2.52 µM,12.5 µM,1.01 µM,4.04 µM,758 nM,3.19 µM,4.67 µM,19.6 µM,0.606 µM,1.76 µM,391 nM,1.82 µM,587 nM,1.64 µM,0.347 µM,1.32 µM,11.9 µM,> 89.6 µM,0.569 µM,1.25 µM
Cc1cc2c(c(=O)o1)C1=S(SC(c3ccccc3)=C1)S2 (stereo unspecified),,> 100 µM,,,,94.5 µM,,> 100 µM,,65.1 µM,,> 100 µM,,45.5 µM,,,,> 100 µM,,75.2 µM
O=S(=O)(O)c1ccc2cc3nn(-c4ccc(/C=C/c5ccc(-n6nc7cc8ccc(S(=O)(=O)O)cc8cc7n6)cc5S(=O)(=O)O)c(S(=O)(=O)O)c4)nc3cc2c1,> 100 µM,> 100 µM,> 100 µM,> 100 µM,> 100000 nM,> 100 µM,67.8 µM,> 100 µM,74.7 µM,> 100 µM,> 100000 nM,> 100 µM,> 100000 nM,> 100 µM,95.2 µM,> 100 µM,12.2 µM,81.7 µM,> 100 µM,> 100 µM
O=C1C(Nc2cccc(O)c2)=C(Sc2ccccc2)C(=O)N1Cc1ccccc1,11.4 µM,27.8 µM,21.6 µM,55.2 µM,,,13 µM,29.6 µM,2.15 µM,14.3 µM,6870 nM,22.8 µM,14800 nM,28.8 µM,10.1 µM,28.5 µM,2.78 µM,12.3 µM,4.83 µM,19.9 µM
COc1cc(/C=C/C(=O)O[C@H]2[C@H](O[C@@H]3O[C@@H](C)[C@H](O)[C@@H](O)[C@H]3O)[C@@H](O)[C@H](OCCc3ccc(O)c(O)c3)O[C@@H]2COC2OCC(O)(CO)C2O)ccc1O (stereo partly specified),,,> 100 µM,> 100 µM,> 100000 nM,> 100 µM,> 100 µM,> 100 µM,> 100 µM,> 100 µM,,,> 100000 nM,> 100 µM,> 100 µM,> 100 µM,> 100 µM,> 100 µM,> 100 µM,> 100 µM
CC1CCN(CCOc2ccc(CNc3ccc4nc(CCC5CCCCC5)[nH]c4c3)cc2)CC1,1.89 µM,3.98 µM,1.87 µM,3.34 µM,1590 nM,3.55 µM,1.54 µM,2.95 µM,1.44 µM,2.93 µM,1730 nM,3.8 µM,1680 nM,3.21 µM,1.62 µM,3.18 µM,1.6 µM,4.5 µM,1.61 µM,3.12 µM
COC1=C(OC)C(=O)C(CCCCCCCCCCO)=C(C)C1=O,3.17 µM,16.6 µM,4.01 µM,29 µM,12100 nM,28 µM,7.39 µM,24.4 µM,3.76 µM,15.6 µM,1960 nM,4.45 µM,16000 nM,29.5 µM,5.89 µM,21.8 µM,4.54 µM,21.7 µM,10.2 µM,24.7 µM
Cc1ccc(S(=O)(=O)NC(=O)OC23COCN2COC3)cc1,,> 100 µM,,> 100 µM,,> 100 µM,,> 100 µM,,> 100 µM,,> 100 µM,,> 100 µM,,> 100 µM,,,,> 100 µM
CN1C(=NCCO)NS(=O)(=O)c2ccccc21,,> 100 µM,,> 100 µM,,,,> 100 µM,,> 100 µM,,> 100 µM,,> 100 µM,,> 100 µM,,> 100 µM,,> 100 µM
Cn1c(C(=O)c2cccc3ccccc23)nc2ccccc21,> 100 µM,> 100 µM,61 µM,> 100 µM,15300 nM,> 100 µM,> 100 µM,> 100 µM,> 100 µM,> 100 µM,3810 nM,> 100 µM,> 100000 nM,> 100 µM,,,> 100 µM,> 100 µM,> 100 µM,> 100 µM
O=C(c1ccco1)c1c(C(F)(F)F)n([O-])c2cc(F)c(F)cc2[n+]1=O,0.497 µM,1.86 µM,0.44 µM,1.37 µM,,,0.307 µM,1.01 µM,0.147 µM,0.435 µM,108 nM,2.62 µM,348 nM,0.85 µM,0.57 µM,1.26 µM,0.0867 µM,0.411 µM,0.193 µM,1.35 µM
C=C1C(=O)O[C@H]2[C@H]1CC/C(COC(=O)NCc1c[nH]c3ccc(F)cc13)=C\CC[C@@]1(C)O[C@@H]21,1.83 µM,3.89 µM,1.53 µM,3.18 µM,1330 nM,2.76 µM,1.32 µM,2.84 µM,1.48 µM,3.05 µM,,,2000 nM,4.56 µM,1.89 µM,4.51 µM,1.42 µM,5.07 µM,0.984 µM,3.07 µM
O=S(=O)(NCCCNc1nccc(-c2c(-c3ccc(F)cc3)nc3sccn23)n1)c1ccc(F)cc1,17.8 µM,> 100 µM,7.8 µM,> 100 µM,2160 nM,16.9 µM,9.04 µM,> 100 µM,9.54 µM,> 100 µM,3240 nM,> 100 µM,24800 nM,> 100 µM,,,8.08 µM,> 100 µM,,
CC(C)N(Cc1ccc(F)cc1)c1ccc(CO)c(Cl)c1,3.31 µM,21.8 µM,0.245 µM,2.02 µM,9210 nM,23.3 µM,10.8 µM,23.2 µM,11.4 µM,24.2 µM,181 nM,13.2 µM,1140 nM,17.6 µM,,,11 µM,32.6 µM,0.184 µM,0.623 µM
O=C1C(Sc2ccc3ccccc3c2)=C(Sc2ccc3ccccc3c2)C(=O)c2ccccc21,,22.1 µM,,,,28.7 µM,,24.7 µM,,31.8 µM,,40.2 µM,,27.8 µM,,23.8 µM,,5.9 µM,,
N#CC1C(N)=NNC12Nc1ccccc1S2 (stereo unspecified),5.23 µM,22.8 µM,23.4 µM,> 100 µM,,,24.4 µM,60.2 µM,14.1 µM,> 100 µM,37500 nM,> 100 µM,30300 nM,> 100 µM,15.4 µM,60.9 µM,,,10.3 µM,43.9 µM
COC(=O)c1cc([N+](=O)[O-])cc([N+](=O)[O-])c1Cl,19.3 µM,69.6 µM,1.73 µM,3.28 µM,1930 nM,5.07 µM,3.15 µM,11 µM,1.88 µM,3.91 µM,1940 nM,4.6 µM,2650 nM,8.09 µM,14.1 µM,28.8 µM,,,1.78 µM,3.2 µM
COc1ccc(/C=N\Nc2nc(SCC(C)C)nc(-c3ccc(OC)cc3)c2C#N)cc1,12.2 µM,31.7 µM,1.55 µM,3.96 µM,1670 nM,8.06 µM,2.1 µM,20.4 µM,,,13800 nM,> 100 µM,414 nM,10.8 µM,12.4 µM,86.9 µM,12.9 µM,> 100 µM,6.71 µM,21.1 µM
